How the values were obtained:
[1] = test system: NRF2 pathway; test: Immunoblot and IHC of NRF2 and its target genes in wound skin tissues of STZ mice; format: in vivo, mouse; conditions: 12.5 mg/kg SF or 50 mg/kg CA i.p. every other day; for protein expression of NRF2 and its target genes HO-1, AKR1C1, and NQO1 (immunoblot): diabetic mouse skin tissue lysates; for NRF2 and HO-1 level by IHC: wound skin tissues of diabetic mice
Procedure: Diabetes mouse model and treatments. […] The STZ-induced diabetic model was previously described (see, e.g., Zheng H, et al., Diabetes 60:3055-3066, 2011) and only 8 week old male mice were included in this study. Briefly, three weeks after STZ injections, fasting glucose levels (FGL, 4 h fast) were measured using the AlphaTRAK system (Abbott Laboratory, North Chicago, Ill.) and mice with a FGL higher than or equal to 250 mg/dL were considered diabetic and included in the study (see, e.g., FIG. 2A and FIG. 3A for a detailed timeline). The mice (n=5-8) were then allocated randomly to each of the indicated treatment groups and received corn oil (control), 12.5 mg/kg SF or 50 mg/kg CA intraperitoneally every two days until skin tissues were harvested. One week after the treatments, the mice were anesthetized, their backs were shaved and cleaned. Two wounds were made with a sterile 6 mm skin biopsy punch (Health link, Jacksonville, Fla.) and covered with 3M Tegaderm pads. […] The tissues were collected using an 8 mm skin biopsy punch; one half was fixed in 10% buffered formalin and embedded in paraffin while the other half was used for protein extraction. […] Wounds and tissue collection were performed as described above.
Immunohistochemistry (IHC), immunoblot analyses, TGF-β1 immunoassay, and gelatin zymography. […] For IHC, antigen retrieval was performed by boiling in sodium citrate buffer (10 mM, pH 6.0) or EDTA buffer (1 mM, pH 8.0). After blocking endogenous peroxidase and non-specific binding, tissue sections were incubated with the indicated primary antibodies. Staining was performed using the Envision system HRP-DAB kit (DAKO North America, CA) according to the manufacturer's instructions.
For protein detection of mouse skin tissues were homogenized in lysis buffer (50 mM Tris-HCl buffer pH 7.4, 100 mM DTT, 2% SDS, 10% glycerol). Protein concentration was measured using Quant-iT Protein Assay (Invitrogen) and 150 μg of protein were resolved by SDS-PAGE and immunoblotting analyses with the indicated antibodies.
To explore the feasibility of pharmacologic activation of NRF2 in facilitating diabetic wound healing, sulforaphane (SF) and cinnamaldehyde (CA), two well-studied NRF2 activators, were tested for their ability to activate the NRF2-mediated antioxidant response in mouse skin tissues. After induction of diabetes using STZ, diabetic Nrf2^+/+ mice were intraperitoneally injected with corn oil (vehicle control), 12.5 mg/kg SF, or 50 mg/kg CA every other day for 1 week, then the wound surgery was performed and the treatment continued for 2 more weeks (FIG. 3A).

[2] = test system: 8-oxo-dG; test: Oxidative DNA damage (8-oxo-dG IHC) in wound skin tissues of STZ mice; format: in vivo, mouse
Source text: Diabetes mouse model and treatments. Nrf2^+/+ and Nrf2^-/- C57BL/6 mice were described previously (see, e.g., Jiang T, et al., Diabetes 59:850-860, 2010) and were housed and handled in accordance with the University of Arizona Institutional Animal Care policies. The STZ-induced diabetic model was previously described (see, e.g., Zheng H, et al., Diabetes 60:3055-3066, 2011) and only 8 week old male mice were included in this study. Briefly, three weeks after STZ injections, fasting glucose levels (FGL, 4 h fast) were measured using the AlphaTRAK system (Abbott Laboratory, North Chicago, Ill.) and mice with a FGL higher than or equal to 250 mg/dL were considered diabetic and included in the study (see, e.g., FIG. 2A and FIG. 3A for a detailed timeline). The mice (n=5-8) were then allocated randomly to each of the indicated treatment groups and received corn oil (control), 12.5 mg/kg SF or 50 mg/kg CA intraperitoneally every two days until skin tissues were harvested. One week after the treatments, the mice were anesthetized, their backs were shaved and cleaned. […] Gross wound closure was quantified by ImageJ software, and wound healing was expressed as the percentage of the original wound area that had healed. […] Morphology was assessed by hematoxylin and eosin (H&E) staining (Vector laboratory, Burlingame, Calif.). […]

| Compound | protein expression of NRF2 and its target genes HO-1, AKR1C1, and NQO1 (immunoblot) [1] | NRF2 and HO-1 level by IHC [1] | oxidative DNA damage (8-oxo-dG) [2] |
| --- | --- | --- | --- |
| O=CC=Cc1ccccc1 [CA, Cinnamaldehyde] | upregulated | high level | greatly alleviated the oxidative DNA damage |
| C[S@@+]([O-])CCCCN=C=S [SF, L-sulforaphane] | upregulated | high level | greatly alleviated the oxidative DNA damage |

From US20180344680A1, “COMPOSITIONS AND METHODS FOR TREATMENT, AMELIORATION, AND PREVENTION OF DIABETES-RELATED SKIN ULCERS” (THE ARIZONA BOARD OF REGENTS ON BEHALF OF THE UNIVERSITY OF …, priority 2015, published 2018)
